We go through 31 compounds from US8815864B2, “Indanyloxydihydrobenzofuranylacetic acids” (Boehringer Ingelheim International GmbH, priority 2012, dated 2014).

Each structure is given as a SMILES string.

In general, EC50 refers to the concentration at which the effect is half-maximal. High values mean a need for much substance, low ones an effect from little substance.

Chain of human GPR40 receptor (O14842 whole entry): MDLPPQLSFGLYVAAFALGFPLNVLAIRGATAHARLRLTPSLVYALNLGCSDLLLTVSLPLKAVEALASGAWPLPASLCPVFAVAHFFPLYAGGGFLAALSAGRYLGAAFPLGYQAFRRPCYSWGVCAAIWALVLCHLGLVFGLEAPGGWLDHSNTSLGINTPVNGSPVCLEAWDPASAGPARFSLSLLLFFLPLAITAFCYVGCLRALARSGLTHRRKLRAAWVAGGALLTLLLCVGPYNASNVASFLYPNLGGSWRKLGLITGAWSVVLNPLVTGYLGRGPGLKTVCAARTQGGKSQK

The target in this assay is human GPR40 receptor (Homo sapiens, UniProt O14842). Put plainly: IP1 accumulation measurements using the IPOne assay system. The format is cell-based. Conditions: 1321N1 cells stably expressing human GPR40; stimulation 1 h at 37° C. On the procedure:
IP1 accumulation measurements using the IPOne assay system—1321N1 cells stably expressing human GPR40 receptor (Euroscreen, Belgium) are seeded 24 h before the assay in white 384-well plates in culture medium containing 10% FCS, 1% Na-Pyruvate and 400 μg/mL G418. IP1 is assayed according to the manufacturer's description (Cisbio Bioassays, France). In brief, the assay is started by substitution of the culture medium by stimulation buffer (Hepes 10 mM, CaCl2 1 mM, MgCl2 0.5 mM, KCl 4.2 mM, NaCl 146 mM, glucose 5.5 mM and LiCl 50 mM, pH 7.4). Cells are stimulated for 1 h at 37° C., 5% CO2 by addition of the compounds that are diluted in stimulation buffer containing LiCl. Assays are stopped by adding HTRF-conjugates (IP1-d2 and Anti-IP1 cryptate Tb) and lysis buffer, provided by the manufacturer. After an incubation time of 1 h at room temperature plates are measured using an EnVision™, Perkin Elmer. The obtained fluorescence ratios at 665/615 […] are then used to calculate the pEC50 values using Assay Explorer 3.3 Software (Accelrys, Inc.) by interpolation using an IP1 reference curve and subsequent sigmoidal curve fitting allowing for a variable hill slope.
The compound `O=C(O)C[C@@H]1COc2cc(O[C@@H]3CCc4c(Oc5ccccc5)ccc(F)c43)ccc21` [Example 1, {(S)-6-[(R)-7-Fluoro-4-phenoxy-indan-1-yloxy]-2,3-dihydro-benzofuran-3-yl}-acetic acid] yielded a concentration giving a half-maximal response (EC50) of 4 nM.
As for `COc1cccc(Oc2ccc(F)c3c2CC[C@H]3Oc2ccc3c(c2)OC[C@H]3CC(=O)O)c1` [Example 2, {(S)-6-[(R)-7-Fluoro-4-(3-methoxy-phenoxy)-indan-1-yloxy]-2,3-dihydro-benzofuran-3-yl}-acetic acid], it took 6 nM to reach a half-maximal effect (EC50).
As for `COc1ccc(Oc2ccc(F)c3c2CC[C@H]3Oc2ccc3c(c2)OC[C@H]3CC(=O)O)cc1` [Example 3, {(S)-6-[(R)-7-Fluoro-4-(4-methoxy-phenoxy)-indan-1-yloxy]-2,3-dihydro-benzofuran-3-yl}-acetic acid], the concentration giving a half-maximal response (EC50) turned out to be 3 nM.
The same measure for `Cc1ccccc1Oc1ccc(F)c2c1CC[C@H]2Oc1ccc2c(c1)OC[C@H]2CC(=O)O` [Example 4, {(S)-6-[(R)-7-Fluoro-4-(2-methyl-phenoxy)-indan-1-yloxy]-2,3-dihydro-benzofuran-3-yl}-acetic acid]: 6 nM; for `Cc1cccc(C)c1Oc1ccc(F)c2c1CC[C@H]2Oc1ccc2c(c1)OC[C@H]2CC(=O)O` [Example 5, {(S)-6-[(R)-7-Fluoro-4-(2,6-dimethyl-phenoxy)-indan-1-yloxy]-2,3-dihydro-benzofuran-3-yl}-acetic acid]: 70 nM.
The same measure for `O=C(O)C[C@@H]1COc2cc(O[C@@H]3CCc4c(Oc5cccnc5)ccc(F)c43)ccc21` [Example 6, {(S)-6-[(R)-7-Fluoro-4-pyrid-3-yloxy-indan-1-yloxy]-2,3-dihydro-benzofuran-3-yl}-acetic acid]: 33 nM; for `O=C(O)C[C@@H]1COc2cc(O[C@@H]3CCc4c(Oc5ccccn5)ccc(F)c43)ccc21` [Example 7, {(S)-6-[(R)-7-Fluoro-4-pyrid-2-yloxy-indan-1-yloxy]-2,3-dihydro-benzofuran-3-yl}-acetic acid]: 32 nM; for `N#Cc1ccc(Oc2ccc(F)c3c2CC[C@H]3Oc2ccc3c(c2)OC[C@H]3CC(=O)O)cc1` [Example 8, {(S)-6-[(R)-4-(4-Cyano-phenoxy)-7-fluoro-indan-1-yloxy]-2,3-dihydro-benzofuran-3-yl}-acetic acid]: 4 nM.
The same measure for `Cc1nccc(Oc2ccc(F)c3c2CC[C@H]3Oc2ccc3c(c2)OC[C@H]3CC(=O)O)n1` [Example 9, {(S)-6-[(R)-7-Fluoro-4-(2-methyl-pyrimid-4-yloxy)-indan-1-yloxy]-2,3-dihydro-benzofuran-3-yl}-acetic acid]: 155 nM; for `O=C(O)C[C@@H]1COc2cc(O[C@@H]3CCc4c(Oc5cnccn5)ccc(F)c43)ccc21` [Example 10, {(S)-6-[(R)-7-Fluoro-4-pyrazin-2-yloxy-indan-1-yloxy]-2,3-dihydro-benzofuran-3-yl}-acetic acid]: 35 nM; for `O=C(O)C[C@@H]1COc2cc(O[C@@H]3CCc4c(Oc5ccncc5)ccc(F)c43)ccc21` [Example 11, {(S)-6-[(R)-7-Fluoro-4-pyrid-4-yloxy-indan-1-yloxy]-2,3-dihydro-benzofuran-3-yl}-acetic acid]: 18 nM.
Take `O=C(O)C[C@@H]1COc2cc(O[C@@H]3CCc4c(Oc5nc6ccccc6s5)ccc(F)c43)ccc21` [Example 12, {(S)-6-[(R)-4-Benzothiazol-2-yloxy-7-fluoro-indan-1-yloxy]-2,3-dihydro-benzofuran-3-yl}-acetic acid]: the EC50 amounted to 12 nM.
Regarding `Cn1c(Oc2ccc(F)c3c2CC[C@H]3Oc2ccc3c(c2)OC[C@H]3CC(=O)O)nc2ccccc21` [Example 13, {(S)-6-[(R)-7-Fluoro-4-(1-methyl-1H-benzoimidazol-2-yloxy)-indan-1-yloxy]-2,3-dihydro-benzofuran-3-yl}-acetic acid], the response was half-maximal at 216 nM (EC50).
In the case of `O=C(O)C[C@@H]1COc2cc(O[C@@H]3CCc4c(Oc5ccc(C(F)(F)F)cn5)ccc(F)c43)ccc21` [Example 14, {(S)-6-[(R)-7-Fluoro-4-(5-trifluoromethyl-pyrid-2-yloxy)-indan-1-yloxy]-2,3-dihydro-benzofuran-3-yl}-acetic acid] it was 26 nM.
The same measure for `Cc1cccc(Oc2ccc(F)c3c2CC[C@H]3Oc2ccc3c(c2)OC[C@H]3CC(=O)O)n1` [Example 15, {(S)-6-[(R)-7-Fluoro-4-(6-methyl-pyrid-2-yloxy)-indan-1-yloxy]-2,3-dihydro-benzofuran-3-yl}-acetic acid]: 31 nM.
In the case of `COc1ccc(Oc2ccc(F)c3c2CC[C@H]3Oc2ccc3c(c2)OC[C@H]3CC(=O)O)nn1` [Example 16, {(S)-6-[(R)-7-Fluoro-4-(6-methoxy-pyridazin-3-yloxy)-indan-1-yloxy]-2,3-dihydro-benzofuran-3-yl}-acetic acid] it was 138 nM.
Take `N#Cc1ccccc1Oc1ccc(F)c2c1CC[C@H]2Oc1ccc2c(c1)OC[C@H]2CC(=O)O` [Example 17, {(S)-6-[(R)-4-(2-Cyano-phenoxy)-7-fluoro-indan-1-yloxy]-2,3-dihydro-benzofuran-3-yl}-acetic acid]: the 50% effective concentration (EC50) was 4 nM.
In the case of `CS(=O)(=O)c1ccc(Oc2ccc(F)c3c2CC[C@H]3Oc2ccc3c(c2)OC[C@H]3CC(=O)O)cc1` [Example 18, {(S)-6-[(R)-7-Fluoro-4-(4-methylsulfonyl-phenoxy)-indan-1-yloxy]-2,3-dihydro-benzofuran-3-yl}-acetic acid] it was 41 nM.
In the case of `O=C(O)C[C@@H]1COc2cc(O[C@@H]3CCc4c(Oc5nc6ccccc6o5)ccc(F)c43)ccc21` [Example 19, {(S)-6-[(R)-4-Benzoxazol-2-yloxy-7-fluoro-indan-1-yloxy]-2,3-dihydro-benzofuran-3-yl}-acetic acid] it was 13 nM; in that of `O=C(O)C[C@@H]1COc2cc(O[C@@H]3CCc4c(Oc5ccc6ncccc6c5)ccc(F)c43)ccc21` [Example 20, {(S)-6-[(R)-7-Fluoro-4-Quinolin-6-yloxy-indan-1-yloxy]-2,3-dihydro-benzofuran-3-yl}-acetic acid], 6 nM; in that of `Cc1cc(Oc2ccc(F)c3c2CC[C@H]3Oc2ccc3c(c2)OC[C@H]3CC(=O)O)ccc1C#N` [Example 21, {(S)-6-[(R)-4-(4-Cyano-3-methyl-phenoxy)-7-fluoro-4-indan-1-yloxy]-2,3-dihydro-benzofuran-3-yl}-acetic acid], 4 nM.
`N#Cc1ccc(Oc2ccc(F)c3c2CC[C@H]3Oc2ccc3c(c2)OC[C@H]3CC(=O)O)c(F)c1` [Example 22, {(S)-6-[(R)-4-(4-Cyano-2-fluoro-phenoxy)-7-fluoro-indan-1-yloxy]-2,3-dihydro-benzofuran-3-yl}-acetic acid] gave a concentration for a half-maximal effect (EC50) of 3 nM.
The same measure for `Cc1ccc(Oc2ccc(F)c3c2CC[C@H]3Oc2ccc3c(c2)OC[C@H]3CC(=O)O)c(C#N)c1` [Example 23, {(S)-6-[(R)-4-(2-Cyano-4-methyl-phenoxy)-7-fluoro-indan-1-yloxy]-2,3-dihydro-benzofuran-3-yl}-acetic acid]: 7 nM.
In the case of `Cc1cc(C#N)ccc1Oc1ccc(F)c2c1CC[C@H]2Oc1ccc2c(c1)OC[C@H]2CC(=O)O` [Example 24, {(S)-6-[(R)-4-(4-Cyano-2-methyl-phenoxy)-7-fluoro-indan-1-yloxy]-2,3-dihydro-benzofuran-3-yl}-acetic acid] it was 3 nM; in that of `O=C(O)C[C@@H]1COc2cc(O[C@@H]3CCc4c(Oc5ccc(OC(F)F)cn5)ccc(F)c43)ccc21` [Example 25, {(S)-6-[(R)-4-(5-Difluoromethoxy-pyrid-2-yloxy)-7-fluoro-indan-1-yloxy]-2,3-dihydro-benzofuran-3-yl}-acetic acid], 13 nM.
In the case of `N#Cc1cc(OC(F)(F)F)ccc1Oc1ccc(F)c2c1CC[C@H]2Oc1ccc2c(c1)OC[C@H]2CC(=O)O` [Example 26, {(S)-6-[(R)-4-(2-Cyano-4-trifluoromethoxy-phenoxy)-7-fluoro-indan-1-yloxy]-2,3-dihydro-benzofuran-3-yl}-acetic acid] it was 30 nM; in that of `N#Cc1cccc(Oc2ccc(F)c3c2CC[C@H]3Oc2ccc3c(c2)OC[C@H]3CC(=O)O)c1` [Example 27, {(S)-6-[(R)-4-(3-Cyano-phenoxy)-7-fluoro-indan-1-yloxy]-2,3-dihydro-benzofuran-3-yl}-acetic acid], 7 nM.
Compound `O=C(O)C[C@@H]1COc2cc(O[C@@H]3CCc4c(Oc5ccc(CO)c(F)c5)ccc(F)c43)ccc21` [Example 28, {(S)-6-[(R)-7-Fluoro-4-(3-fluoro-4-hydroxymethyl-phenoxy)-indan-1-yloxy]-2,3-dihydro-benzofuran-3-yl}-acetic acid] gave an EC50 of 8 nM.
`N#Cc1ccc(Oc2ccc(F)c3c2CC[C@H]3Oc2ccc3c(c2)OC[C@H]3CC(=O)O)cc1F` [Example 29, {(S)-6-[(R)-4-(4-Cyano-3-fluoro-phenoxy)-7-fluoro-indan-1-yloxy]-2,3-dihydro-benzofuran-3-yl}-acetic acid]: the concentration giving a half-maximal response (EC50) was determined as 6 nM.
The same measure for `N#Cc1ccc(F)cc1Oc1ccc(F)c2c1CC[C@H]2Oc1ccc2c(c1)OC[C@H]2CC(=O)O` [Example 30, {(S)-6-[(R)-4-(2-Cyano-5-fluoro-phenoxy)-7-fluoro-indan-1-yloxy]-2,3-dihydro-benzofuran-3-yl}-acetic acid]: 11 nM.
The same measure for `CN(C)c1ccc(Oc2ccc(F)c3c2CC[C@H]3Oc2ccc3c(c2)OC[C@H]3CC(=O)O)cn1` [Example 31]: 120 nM.
